According to patent US5268282A, “Cyclic FR-900520 microbial biotransformation agent” (Merck & Co., Inc., priority 1992, dated 1993):
“Also recorded” adds a separate entry of the source.

Tests used:
[1] = immunosuppressant; EPO Publication No. 0184162; cited from earlier work
[2] = tested on: splenic T-cells (mouse T lymphocytes); experiment: T-cell proliferation assay (ionomycin + PMA induced T-cell stimulation, tritiated thymidine uptake); format: cell-based, mouse (C57Bl/6)
Description: The principle of this assay is to measure the proliferation of mouse T lymphocytes stimulated with the combination of ionomycin plus PMA.
Cells were pelleted by centrifugation at 1500 rpm for 8 minutes. Contaminating red cells were removed by treating the pellet with ammonium chloride lysing buffer (GIBCO) for 2 minutes at 4° C. Cold medium was added and cells were again centrifuged at 1500 rpm for 8 minutes. T lymphocytes were then isolated by separation of the cell suspension on nylon wool columns as follows: Nylon wool columns were prepared by packing approximately 4 grams of washed and dried nylon wool into 20 ml plastic syringes. The columns were sterilized by autoclaving at 250° F. for 30 minutes. Nylon wool columns were wetted with warm (37° C.) culture medium and rinsed with the same medium. Washed spleen cells resuspended in warm medium were slowly applied to the nylon wool. The columns were then incubated in an upright position at 37° C. for 1 hour. Non-adherent T lymphocytes were eluted from the columns with warm culture medium and the cell suspensions were spun as above.
The cell suspension was immediately distributed into 96 well flat-bottom microculture plates (Costar) at 200 μl/well. […] Radioactivity of filter discs corresponding to individual wells was measured by standard liquid scintillation counting methods (Betacounter). Mean counts per minute of replicate wells were calculated and the results expressed as percent inhibition of tritiated thymidine uptake (proliferation) as follows: [formula]

[3] = Solubility (physical characteristics); format: physicochemical; details: methanol

C=CC[C@@H]1/C=C(\C)C[C@H](C)C[C@H](OC)[C@H]2O[C@@](O)(C(=O)C(=O)N3CCCC[C@H]3C(=O)O[C@H](/C(C)=C/[C@@H]3CC[C@@H](O)[C@H](OC)C3)[C@H](C)[C@@H](O)CC1=O)[C@H](C)C[C@@H]2OC [FK-506]
times more effective than cyclosporin (reputed) [1]: 100 times

C=CCC1C=C(C)CC(C)CC(OC)C2OC(O)(C(=O)C(=O)N3CCCCC3C(=O)OC(C(C)=CC3CCC(O)C(OC)C3)C(C)C(O)CC1=O)C(C)CC2OC (stereo not drawn) [FR 900506, reference compound]
inhibition at 0.01 µg/mL ([2]; Mus musculus, T-cell, read-out: inhibition by the standard): 99%

CC[C@@H]1C=C2COC1(O)C[C@H](O)[C@@H](C)[C@@H](/C(C)=C/[C@@H]1CC[C@@H](O)[C@H](OC)C1)OC(=O)[C@@H]1CCCCN1C(=O)C(=O)[C@]1(O)O[C@H]([C@@H](OC)C[C@@H](C)C2)[C@@H](OC)C[C@H]1C [Compound I]
Inhibition of T-cell proliferation upon addition of IL2 ([2]; 50 units/ml recombinant IL2 added at the initiation of culture): reversed
IC50 ([2]; Mus musculus, T-cell, based on a series of 5 additional experiments, read-out: IC50, generally in the range of): 1.57 to 5.2 ng/mL
immunosuppressant activity (inhibition of T-cell activation / T-cell proliferation assay) ([2]; result in words): positive inhibition of T-cell activation; also recorded: positive immunosuppressive activity
Solubility [3]: Solubility in methanol
